Data on 1 substance can be found in patent US11091749B2, “Deimmunized lysostaphin and methods of use” (TRUSTEES OF DARTMOUTH COLLEGE, priority 2014, dated 2021).

Data set [1] deals with MRSA strain USA400. The experiment in a line: Efficacy of F12 in recurrent systemic MRSA infections. To be noted: for # Treated Mice Surviving: 500 μg enzyme 1 hour later. Type of data set: in vivo, DR4 HLA transgenic mice. As for the experimental part: In a similar set of experiments, the immunogenicity and efficacy of variant F12 was compared to wild-type LST in the absence of adjuvant using DR4 HLA transgenic mice. At week 0, mice were challenged with an intraperitoneal injection of 2×10^8 MRSA strain USA400, and 1 hour later the mice were treated with 500 μg wild-type LST or 500 μg variant F12, given as a single bolus subcutaneous injection. Subsequently, mice were challenged weekly with an intraperitoneal injection of 1×10^9 MRSA strain USA400, and treated as above. Antibody titers were measured weekly beginning at week 2. […] Variant F12 rescued all mice from four recurrent, systemic, MRSA infections (Table 24). The substantially lower antibody titers elicited by variant F12 indicate that this variant is […] than wild-type LST.

The subject of data set [2] is MRSA strain USA400. In words: In vitro inhibitory activity (MIC). Type of data set: cell-based, Staphylococcus aureus. The settings on record: 50° C. for 1 hour prior to assay. An excerpt: F11, P12 and F13 were screened for in vitro inhibitory activity against MRSA strain USA400 (FIG. 7).
The test system of data set [3] is MRSA strain USA400. In words: In vivo efficacy of F11, intraperitoneal MRSA challenge. Further details: species or system C57BL/6 mice. The settings on record: 100 μg single bolus i.v. 1 h after 2×10^8 MRSA i.p. As for the experimental part: Mice were challenged with an intraperitoneal injection of 2×10^8 MRSA strain USA400, and 1 hour later the mice were treated with 100 μg wild-type LST, F11 or PBS. The percent survival is shown.
The in vivo efficacy of the F11 variant was further analyzed in C57BL/6 mice. Mice were challenged with an intraperitoneal injection of 2×10^8 MRSA strain USA400, and 1 hour later the mice were treated with 100 μg wild-type LST, F11 or PBS, administered as a single bolus intravenous injection. The survival rate for both protein treatments was 1/3. The 100 μg dosage was selected because wild-type LST is known to be only partially efficacious at this dose.

A further data set has as its system S. aureus 6445. The experiment in a line: MIC assay. The settings on record: biological duplicates. Type of data set: cell-based, Staphylococcus aureus.

As for “Wild-Type: wild-type lysostaphin (SEQ ID NO:49) produced in P. pastoris; aglycosylated Ser126Pro backbone in the design studies [reference compound]”, in the data set on MRSA strain USA400 [1] (500 μg s.c., weekly challenges, no adjuvant), the “recurrent systemic MRSA infections from which mice were rescued” value was “four”. The “# Treated Mice Surviving” value stood at 7 in the data set with MRSA strain USA400 [1] (Week 0, 2×10^8 MRSA USA400 i.p., no adjuvant); 6 in the data set on MRSA strain USA400 [1] (Week 1, 1×10^9 MRSA USA400 i.p.); 5 in the data set with MRSA strain USA400 [1] (Week 2, 1×10^9 MRSA USA400 i.p.); 4 in the data set on MRSA strain USA400 [1] (Week 3, 1×10^9 MRSA USA400 i.p.); 0 in the data set with MRSA strain USA400 [1] (Week 4, 1×10^9 MRSA USA400 i.p.). Besides, the “retained original MIC activity after heating” value in the data set with MRSA strain USA400 [2] was “full”. Moreover, the survival rate in the data set with MRSA strain USA400 [3] was 1/3. Moreover, the “MIC Strain 6445” value against S. aureus 6445 was 0.03 µg/mL.
